Results on 2 molecules are retold here after US11969470B2, “Topiramate compositions and methods of making and using the same” (Regents of the University of Minnesota, priority 2006, dated 2024).

For data set [1] the following is noted: cited from earlier work.
Data set [2] concerns hypoxic-ischemic white matter injury. The note with it: administration post-insult in vivo; cited from earlier work.
Data set [3] can be described thus: Open labeled single dose intravenous [13C]6-TPM/CAPTISOL study in adult patients on maintenance oral topiramate (pharmacokinetics and safety). Particulars: for BP changes / EKG changes / Injection site irritation / Other adverse events / Pulse changes / Bioavailability (fraction of oral dose absorbed, AUCoral vs AUCiso) / Clearance / Distribution volume / Half life: IV dose 25 mg. The data set is classed as in vivo, human. Here is the method: This was an open labeled, single dose study in adult patients on a maintenance dose of topiramate for treatment of either migraines or epilepsy.
Patients were instructed to take their evening topiramate dose the day before the study, then fast until after administration of study drug. On the day of the study, subjects were admitted to University of Minnesota General Clinical Research Center where a neurologist performed a brief physical and neurological exam, vital signs were recorded, an ECG strip was obtained, indwelling catheters were placed in the left and right forearms, and blood samples were drawn for baseline laboratory tests.
A baseline assessment of topiramate toxicity was performed using the following criteria: ataxia and nystagmus: 0=none, 1=mild, 2=severe. As used herein, “ataxia” is classified as “mild”—for unsteady with tandem gait testing, but able to perform without assistance, or as “severe”—unable to perform tandem gait testing without assistance
The [^13C]6-TPM was administered into the right arm catheter, while blood samples for laboratory tests were drawn from the left arm. Laboratory chemistries included albumin, blood chemistries, kidney and liver function test, and genotyping for drug disposition. A 25 mg [^13C]6-TPM dose was then infused over 10-20 minutes. The exact dose administered was determined gravimetrically from the pre- and post-dose syringe weights. At the end of the infusion, patients took their prescribed oral morning dose; thereafter they resumed their regular dosing regimen. Blood samples for pharmacokinetic analysis were taken at 0, 5 minutes, 15 minutes, 30 minutes, 1 hour, 2 hours, 4 hours, 6 hours, 10 hours, 24 hours, 48 hours, 72 hours and 96 hours after intravenous administration of the topiramate. Urine was collected from 0-24 hours for analysis of the parent drug to determine renal clearance. Urine volumes were measured and 15 mL aliquots were stored at −80° C. until analysis.
Topiramate was detected using a LC/MS method employing the electrospray ionization (ESI) and negative scan mode. This method is designed to measure both unlabeled topiramate and the stable-isotope topiramate using a negative ESI and SIM mode of liquid chromatograph mass spectrometer. The analytes were separated using ZORBAX® LC8/LC18 and a mobile phase consisting of ammonium acetate buffer and methanol. The data generated using CHEMSTATION® software (Agilent) and quantified using deuterated topiramate (“TPM-d12”, internal standard). Patient samples were run along with a 7-concentration standard curve (run in triplicate) and nine quality control samples (low, med and high also run in triplicates), analyzed in human plasma using liquid extraction with methyl-tert-butylether and negative ion electrospray mass spectrometry. The quantitative analysis was performed using selective ion monitoring mode for topiramate at m/z=338 and m/z=350 for TPM-d12 in the negative mode. The unlabeled topiramate calibration curve ranged from 0.05 μg/mL to 10 μg/mL.
Both stable-isotope topiramate and non-labeled topiramate concentration-time data was analyzed by non-compartmental methods to obtain AUC, clearance, half-life, and volume of distribution data. The AUC was determined by the trapezoidal rule and the terminal half-life was determined by linear regression of the terminal phase on log concentration vs. time plots. WINNONLIN® (Tripos L.L.P.), a pharmacokinetic data analysis package was used to fit the data to standard pharmacokinetic models (one and two-compartment models).
Elimination rate constant (kel): kel was determined by the best fit of the post-infusion isotope concentration-time data.
AUCiso=AUC0-96 hrs+Cp96 hrs/kel
Distribution Volume at Steady State (Vdss): Vdss was determined as follows: Vdss=Doseiso*AUMC/AUC where AUMC is the area under the first moment curve, and calculated by determining the area under the curve of a plot of the product of concentration and time versus time from zero time to infinity. […]

The test system of another data set is AMPA-kainate receptor. Particulars: developing oligodendrocytes; similar to NBQX; cited from earlier work.
Data set [4] can be described thus: Topiramate phase solubility study with the cyclodextrin CAPTISOL
Protocol: A phase solubility study was conducted with the cyclodextrin CAPTISOL® and topiramate to evaluate the extent of solubilization of the drug by the derivatized cyclodextrin.
Solutions containing increasing amounts of dissolved CAPTISOL® brand of sulfobutylether-β-cyclodextrin were prepared and added to small glass vials. Excess solid topiramate was added to each vial and the vials were capped, vortexed and placed in constant agitation for five days at room temperature (about 23° C. to about 25° C.).
After the multi-day equilibration period, the vials were centrifuged (twice at 693×g, 25° C.) and aliquots were taken from the clear supernatant solutions. The aliquots were diluted 1:3 (1:5.67 for 40% cyclodextrin CAPTISOL® solutions) with mobile phase and analyzed by HPLC for topiramate content.
• HPLC: Dionex • Detection: Refractive Index Detector • Column: SB-Phenyl (5 μm) 250 mm×4.6 mm • Column Temperature: 35° C. • Mobile Phase: 40:60 (MeOH:Water) • Flow Rate: 1.0 mL/min isocratic • Run Time: 30 minutes • Sample Solvent: Mobile phase • Injection Volume: 50 μL • Retention Time: ˜12.5 minutes Mobile Phase Preparation
For data set [5] the following is noted: administered parenterally, orally and via inhalation; compared with β-cyclodextrin; cited from earlier work.
For data set [6] the following is noted: cited from earlier work. This is another data set of the same source.
Where [7] appears, read: adult patients, summary of three subjects.
Where [8] appears, read: subject TUMN1, oral dose 50 mg b.i.d.
The mark [9] stands for this setting: subject TUMN2, oral dose 100 mg q.d.
Where [10] appears, read: subject TUMN3, oral dose 25 mg b.i.d.

Some results are limits rather than exact numbers.

Take `CC1(C)O[C@@H]2[C@@H](CO[C@@]3(COS(N)(=O)=O)OC(C)(C)O[C@@H]23)O1` [Topiramate, 2,3:4,5-di-O-isopropylidene-β-D-fructopyranose sulfamate]: the “bioavailability of an oral topiramate dose” value in data set [1] (oral administration, previously found) was “about 80%”. In addition, in data set [1] (oral administration), the “oral dose excreted in the urine as unchanged drug” value is given as “about 70%”. In data set [1] (pediatric patients vs adults), the “higher clearance in pediatric patients compared to adults” value is 50%. Moreover, in data set [2], the “effect on selective hypoxic-ischemic white matter injury” value was “protective against selective hypoxic-ischemic white matter injury”. In addition, in data set [3] (setting [7]), the “distribution volume for intravenously administered topiramate” value was “approximately 0.7 L/kg” and the oral absorption result was “approximately 100%”. In data set [3] (subject TUMN1), the BP changes result was “None”, the EKG changes entry was “None”, the Injection site irritation entry is on record as “None” and the Other adverse events entry was “None”. For the same molecule, in data set [3] (subject TUMN1), the Pulse changes entry was “None”. Besides, in data set [3] (setting [8]), the “Bioavailability (fraction of oral dose absorbed, AUCoral vs AUCiso)” value was 102%; the Clearance stood at 1.01 L/h; the Distribution volume is on record as 0.78 L/kg; the Half life was 30.5 h. In data set [3] (subject TUMN2), the BP changes entry was “None”, the EKG changes result is on record as “None”, the Injection site irritation entry is listed as “None” and the Other adverse events result is “None”. Moreover, in data set [3] (subject TUMN2), the Pulse changes entry is “None”. In data set [3] (setting [9]), the “Bioavailability (fraction of oral dose absorbed, AUCoral vs AUCiso)” value is recorded as 106%; the Clearance stood at 1.07 L/h; the Distribution volume came to 0.68 L/kg; the Half life came out at 28.4 h. Further, in data set [3] (subject TUMN3), the BP changes result is “None”, the EKG changes result is reported as “None”, the Injection site irritation result is “None” and the Pulse changes result is “None”. In data set [3] (subject TUMN3, cell wraps: Vasovagal response during IV line placement), the Other adverse events result is “Vasovagal”. Further, in data set [3] (setting [10]), the “Bioavailability (fraction of oral dose absorbed, AUCoral vs AUCiso)” value was found to be 109%; the Clearance came out at 1.11 L/h; the Distribution volume is on record as 0.70 L/kg; the Half life was 38.0 h. For the same molecule, the “effect on AMPA-kainate receptor-mediated cell death and calcium influx, kainate-evoked currents” value in the data set on AMPA-kainate receptor is “attenuates”. For the same molecule, the intrinsic solubility in data set [4] (in water in the absence of cyclodextrin, room temperature) was determined as 7860 µg/mL. Moreover, in data set [4] (topiramate in CAPTISOL solutions in water), the phase solubility type result is “Type A-linear”.

Take “sulfobutylether-β-cyclodextrin [CAPTISOL®]”: in data set [5], the nephrotoxicity result was “does not exhibit the nephrotoxicity associated with β-cyclodextrin”. The water solubility in data set [6] is reported as more than 90 g per 100 mL.
